One experiment relates to A549 cells. Put plainly: Ras cellular assay, growth of cells with K-Ras G12S mutation (CellTiter-Glo). In kind it is cell-based. To be noted: Homo sapiens, cell growth, Example 9, G12S mutation, read-out: IC50 against A549 cells. The method, boiled down: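 Growth inhibition IC50 values come from four-parameter fits of CellTiter-Glo luminescence, read about 6 days after compound addition. G12S-mutant A549 cells (e.g. 800/well, RPMI-1640 + 10% heat-inactivated FBS) were plated in tissue-culture-treated or ultra-low-attachment 384-well format. Dosing began the following day with serial dilutions, e.g. 10 points, 3-fold.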

In another experiment the target is T1, K-Ras WT (Homo sapiens, UniProt P01116).
T1 construct: made in house; host or cells: E. coli BL21 (DE3)
T1 sequence (P01116 1-188 isoform P01116-2): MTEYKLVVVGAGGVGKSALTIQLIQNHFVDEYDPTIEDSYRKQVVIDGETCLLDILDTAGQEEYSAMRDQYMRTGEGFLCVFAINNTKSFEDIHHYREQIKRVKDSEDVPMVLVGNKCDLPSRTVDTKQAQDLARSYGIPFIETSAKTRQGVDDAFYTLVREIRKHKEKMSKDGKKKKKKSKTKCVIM
Put plainly: HTRF resonance energy transfer assay, K-Ras WT / SOS1 interaction. Format: biochemical. To be noted: HTRF assay of Example 5; read-out: IC50 against K-Ras WT. The method, boiled down: (§1)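 Compounds, tested in duplicate at 10 μM down to 0.01 μM, were read after about 10 min or more by HTRF as the 665/620 nm emission ratio (337 nm excitation) to derive IC50. This ratio reports FRET between an anti-GST-Eu donor on GST-K-Ras (wild-type or mutant) and an anti-6His-XL665 acceptor on His-hSOS1. Buffer: ~5 mM HEPES pH 7.4, 150 mM NaCl, 1 mM DTT, 0.05% BSA, 0.0025% Igepal.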
A general note: TR-FRET usually uses a lanthanide donor and a delayed reading to cut background.

Another experiment deals with T2, K-Ras G12S (Homo sapiens, UniProt P01116, G12S).
T2 construct: made in house; host or cells: E. coli BL21 (DE3)
T2 sequence (P01116 1-188 isoform P01116-2 G12S): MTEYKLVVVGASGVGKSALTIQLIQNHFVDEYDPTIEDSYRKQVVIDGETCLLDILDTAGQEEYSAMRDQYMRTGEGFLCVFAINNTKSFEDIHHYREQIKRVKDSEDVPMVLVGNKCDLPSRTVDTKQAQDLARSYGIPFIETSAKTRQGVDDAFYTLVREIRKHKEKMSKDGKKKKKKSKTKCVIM
Put plainly: HTRF resonance energy transfer assay, K-Ras G12S / SOS1 interaction. To be noted: HTRF assay of Example 5; read-out: IC50 against K-Ras G12S. In kind it is biochemical. The method, boiled down:
as §1

Another experiment has as its system GP2D cells. Put plainly: Ras cellular assay, growth of cells with K-Ras G12D mutation (CellTiter-Glo). Format: cell-based. The settings on record: cell growth, Example 9, G12D mutation, read-out: IC50 against GP2D cells.
The next experiment has as its system SW620 cells. Put plainly: Ras cellular assay, growth of cells with K-Ras G12V mutation (CellTiter-Glo). In kind it is cell-based. To be noted: Homo sapiens, SW-620; cell growth, Example 9, G12V mutation; read-out: IC50 against SW620 cells. The gist of the method: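 IC50 values came from a four-parameter fit of CellTiter-Glo viability, read roughly 6 days after dosing with e.g. a 10-point threefold dilution series. G12V-mutant SW620 cells (e.g. 800 per well) had been plated the previous day in RPMI-1640/10% heat-inactivated FBS, on tissue culture-treated or ultra-low attachment plates.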

The next experiment concerns the target T3, K-Ras G12D (Homo sapiens, UniProt P01116, G12D).
T3 construct: made in house; host or cells: E. coli BL21 (DE3)
Put plainly: HTRF resonance energy transfer assay, K-Ras G12D / SOS1 interaction. Format: biochemical. The settings on record: HTRF assay of Example 5; read-out: IC50 against K-Ras G12D. The method, boiled down:
as §1

A further experiment deals with T4, K-Ras G12V (Homo sapiens, UniProt P01116, G12V).
T4 construct: made in house; host or cells: E. coli BL21 (DE3)
T4 sequence (P01116 1-188 isoform P01116-2 G12V): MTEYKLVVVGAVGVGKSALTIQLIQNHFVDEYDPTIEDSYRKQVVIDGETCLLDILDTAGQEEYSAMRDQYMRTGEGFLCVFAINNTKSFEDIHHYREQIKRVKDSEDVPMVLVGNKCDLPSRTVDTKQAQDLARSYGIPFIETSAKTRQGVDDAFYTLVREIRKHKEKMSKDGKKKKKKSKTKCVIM
Put plainly: HTRF resonance energy transfer assay, K-Ras G12V / SOS1 interaction. Format: biochemical. The settings on record: HTRF assay of Example 5; read-out: IC50 against K-Ras G12V. The method, boiled down:
as §1

T3 sequence (P01116 1-188 isoform P01116-2 G12D): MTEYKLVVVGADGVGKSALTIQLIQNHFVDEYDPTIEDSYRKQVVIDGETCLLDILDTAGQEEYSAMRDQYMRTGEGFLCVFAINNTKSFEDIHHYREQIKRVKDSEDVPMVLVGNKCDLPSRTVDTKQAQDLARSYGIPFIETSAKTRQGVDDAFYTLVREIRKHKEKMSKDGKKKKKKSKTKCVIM

As usually defined, the IC50 is the concentration needed to halve the response being measured. With `COCC(C)N1CCOc2c(Cl)c(-c3ccc(F)c4sc(N)c(C#N)c34)c(F)c3nc(OC[C@@]45CCCN4C[C@H](F)C5)nc1c23` (stereo partly drawn) [Compound 670, 2-amino-4-(8-chloro-10-fluoro-2-(((2R,7aS)-2-fluorotetrahydro-1H-pyrrolizin-7a(5H)-yl)methoxy)-4-(1-methoxypropan-2-yl)-5,6-dihydro-4H-[1,4]oxazepino[5,6,7-de]quinazolin-9-yl)-7-fluorobenzo[b]thiophene-3-carbonitrile], the IC50 with A549 cells was under 5 µM; on K-Ras WT, under 100 nM; on K-Ras G12S, under 100 nM; in the experiment on GP2D cells, under 500 nM; in the experiment on SW620 cells, under 5 µM; on K-Ras G12D, under 100 nM. Further, the half-maximal inhibitory concentration (IC50) on K-Ras G12V was under 100 nM.
Take `N#Cc1c(N)sc2c(F)ccc(-c3c(Cl)c4c5c(nc(OC[C@@]67CCCN6C[C@H](F)C7)nc5c3F)N(C3CCOC3)CC(CO)O4)c12` (stereo partly drawn) [Compound 681, 2-amino-4-(8-chloro-10-fluoro-2-(((2R,7aS)-2-fluorotetrahydro-1H-pyrrolizin-7a(5H)-yl)methoxy)-6-(hydroxymethyl)-4-(tetrahydrofuran-3-yl)-5,6-dihydro-4H-[1,4]oxazepino[5,6,7-de]quinazolin-9-yl)-7-fluorobenzo[b]thiophene-3-carbonitrile]: the IC50 in the experiment on A549 cells is under 5 µM; on K-Ras WT it was under 100 nM; at K-Ras G12S, under 100 nM; in the experiment on GP2D cells, under 500 nM; in the experiment on SW620 cells it was under 5 µM; on K-Ras G12D, under 100 nM. On K-Ras G12V, the IC50 is under 100 nM.
Consider `N#Cc1c(N)sc2c(F)ccc(-c3c(Cl)c4c5c(nc(OC[C@@]67CCCN6C[C@H](F)C7)nc5c3F)N(C3CCOC3)CCO4)c12` (stereo partly drawn) [Compound 688, 2-amino-4-(8-chloro-10-fluoro-2-(((2R,7aS)-2-fluorotetrahydro-1H-pyrrolizin-7a(5H)-yl)methoxy)-4-(tetrahydrofuran-3-yl)-5,6-dihydro-4H-[1,4]oxazepino[5,6,7-de]quinazolin-9-yl)-7-fluorobenzo[b]thiophene-3-carbonitrile], for which the IC50 with A549 cells is under 5 µM; at K-Ras WT, under 100 nM; at K-Ras G12S it was under 100 nM; with GP2D cells it was under 500 nM; in the experiment with SW620 cells, under 5 µM; on K-Ras G12D, under 100 nM. At K-Ras G12V, the IC50 was under 100 nM.
Turning to `N#Cc1c(N)sc2c(F)ccc(-c3c(Cl)c4c5c(nc(OC[C@@]67CCCN6C[C@H](F)C7)nc5c3F)N(C3CC5(CCN(C=O)C5)C3)CCO4)c12` (stereo partly drawn) [Compound 698, 2-amino-4-(8-chloro-10-fluoro-2-(((2R,7aS)-2-fluorotetrahydro-1H-pyrrolizin-7a(5H)-yl)methoxy)-4-(6-formyl-6-azaspiro[3.4]octan-2-yl)-5,6-dihydro-4H-[1,4]oxazepino[5,6,7-de]quinazolin-9-yl)-7-fluorobenzo[b]thiophene-3-carbonitrile], the IC50 is under 5 µM in the experiment with A549 cells; under 100 nM on K-Ras WT; under 100 nM at K-Ras G12S; under 500 nM in the experiment on GP2D cells; under 5 µM in the experiment on SW620 cells; under 100 nM at K-Ras G12D. Moreover, the IC50 at K-Ras G12V is under 100 nM.
Consider `N#Cc1c(N)sc2c(F)ccc(-c3c(Cl)c4c5c(nc(OC[C@@]67CCCN6C[C@H](F)C7)nc5c3F)N(C3CCN(C(=O)C[C@@H]5CCOC5)C3)CCO4)c12` (stereo partly drawn) [Compound 699, 2-amino-4-(8-chloro-10-fluoro-2-(((2R,7aS)-2-fluorotetrahydro-1H-pyrrolizin-7a(5H)-yl)methoxy)-4-(1-(2-((S)-tetrahydrofuran-3-yl)acetyl)pyrrolidin-3-yl)-5,6-dihydro-4H-[1,4]oxazepino[5,6,7-de]quinazolin-9-yl)-7-fluorobenzo[b]thiophene-3-carbonitrile], for which the IC50 in the experiment on A549 cells is under 5 µM; on K-Ras WT it was under 100 nM; at K-Ras G12S, under 100 nM; with GP2D cells it was under 500 nM; with SW620 cells it was under 5 µM; at K-Ras G12D it was under 100 nM. Moreover, on K-Ras G12V, the IC50 is under 100 nM.
Consider `N#CCC1COc2c(Cl)c(-c3ccc(F)c4sc(N)c(C#N)c34)c(F)c3nc(OC[C@@]45CCCN4C[C@H](F)C5)nc(c23)N1CC(F)F` (stereo partly drawn) [Compound 700, 2-amino-4-(8-chloro-5-(cyanomethyl)-4-(2,2-difluoroethyl)-10-fluoro-2-(((2R,7aS)-2-fluorotetrahydro-1H-pyrrolizin-7a(5H)-yl)methoxy)-5,6-dihydro-4H-[1,4]oxazepino[5,6,7-de]quinazolin-9-yl)-7-fluorobenzo[b]thiophene-3-carbonitrile], for which the IC50 was under 5 µM in the experiment with A549 cells; under 100 nM on K-Ras WT; under 100 nM at K-Ras G12S; under 500 nM in the experiment on GP2D cells; under 5 µM in the experiment with SW620 cells; under 100 nM at K-Ras G12D. Besides, the IC50 on K-Ras G12V is under 100 nM.
As to `N#Cc1c(N)sc2c(F)ccc(-c3c(Cl)c4c5c(nc(OC[C@@]67CCCN6C[C@H](F)C7)nc5c3F)N(CC(F)F)C(CC(F)F)CO4)c12` (stereo partly drawn) [Compound 701, 2-amino-4-(8-chloro-4,5-bis(2,2-difluoroethyl)-10-fluoro-2-(((2R,7aS)-2-fluorotetrahydro-1H-pyrrolizin-7a(5H)-yl)methoxy)-5,6-dihydro-4H-[1,4]oxazepino[5,6,7-de]quinazolin-9-yl)-7-fluorobenzo[b]thiophene-3-carbonitrile], the IC50 in the experiment on A549 cells is under 5 µM; at K-Ras WT it was under 100 nM; on K-Ras G12S, under 100 nM; with GP2D cells, under 500 nM; in the experiment on SW620 cells, under 5 µM; on K-Ras G12D, under 100 nM. Moreover, on K-Ras G12V, the IC50 was under 100 nM.
For the molecule `N#CCCC1CN(CC(F)F)c2nc(OC[C@@]34CCCN3C[C@H](F)C4)nc3c(F)c(-c4ccc(F)c5sc(N)c(C#N)c45)c(Cl)c(c23)O1` (stereo partly drawn) [Compound 704, 2-amino-4-(8-chloro-6-(2-cyanoethyl)-4-(2,2-difluoroethyl)-10-fluoro-2-(((2R,7aS)-2-fluorotetrahydro-1H-pyrrolizin-7a(5H)-yl)methoxy)-5,6-dihydro-4H-[1,4]oxazepino[5,6,7-de]quinazolin-9-yl)-7-fluorobenzo[b]thiophene-3-carbonitrile], the IC50 is under 5 µM in the experiment on A549 cells; under 100 nM at K-Ras WT; under 100 nM at K-Ras G12S; under 500 nM in the experiment with GP2D cells; under 5 µM in the experiment on SW620 cells; under 100 nM at K-Ras G12D. The IC50 at K-Ras G12V was under 100 nM.
`N#Cc1c(N)sc2c(F)ccc(-c3c(Cl)c4c5c(nc(OC[C@@]67CCCN6C[C@H](F)C7)nc5c3F)N(C3CCN(C(=O)[C@H]5CCCO5)C3)CCO4)c12` (stereo partly drawn) [Compound 705, 2-amino-4-(8-chloro-10-fluoro-2-(((2R,7aS)-2-fluorotetrahydro-1H-pyrrolizin-7a(5H)-yl)methoxy)-4-(1-((R)-tetrahydrofuran-2-carbonyl)pyrrolidin-3-yl)-5,6-dihydro-4H-[1,4]oxazepino[5,6,7-de]quinazolin-9-yl)-7-fluorobenzo[b]thiophene-3-carbonitrile]: the IC50 in the experiment with A549 cells is under 5 µM; at K-Ras WT, under 100 nM; on K-Ras G12S, under 100 nM; in the experiment on GP2D cells, under 500 nM; with SW620 cells, under 5 µM; at K-Ras G12D, under 100 nM. Moreover, the IC50 on K-Ras G12V is under 100 nM.
With `N#Cc1c(N)sc2c(F)ccc(-c3c(Cl)c4c5c(nc(OC[C@@]67CCCN6C[C@H](F)C7)nc5c3F)N(CCOC(F)F)CCO4)c12` [Compound 713, 2-amino-4-(8-chloro-4-(2-(difluoromethoxy)ethyl)-10-fluoro-2-(((2R,7aS)-2-fluorotetrahydro-1H-pyrrolizin-7a(5H)-yl)methoxy)-5,6-dihydro-4H-[1,4]oxazepino[5,6,7-de]quinazolin-9-yl)-7-fluorobenzo[b]thiophene-3-carbonitrile], the IC50 in the experiment on A549 cells was under 5 µM; at K-Ras WT it was under 100 nM; on K-Ras G12S it was under 100 nM; in the experiment on GP2D cells, under 500 nM; in the experiment on SW620 cells, under 5 µM; at K-Ras G12D, under 100 nM. Also, the IC50 at K-Ras G12V was under 100 nM.
In the case of `N#Cc1c(N)sc2c(F)ccc(-c3c(Cl)c4c5c(nc(OC[C@@]67CCCN6C[C@H](F)C7)nc5c3F)N([C@@H]3CCN(C=O)C3)CCO4)c12` [Compound 716, 2-amino-4-(8-chloro-10-fluoro-2-(((2R,7aS)-2-fluorotetrahydro-1H-pyrrolizin-7a(5H)-yl)methoxy)-4-((R)-1-formylpyrrolidin-3-yl)-5,6-dihydro-4H-[1,4]oxazepino[5,6,7-de]quinazolin-9-yl)-7-fluorobenzo[b]thiophene-3-carbonitrile], the IC50 was under 5 µM in the experiment on A549 cells; under 100 nM at K-Ras WT; under 100 nM on K-Ras G12S; under 500 nM in the experiment with GP2D cells; under 5 µM in the experiment on SW620 cells; under 100 nM at K-Ras G12D. Besides, the IC50 on K-Ras G12V was under 100 nM.
